The structures appear in SMILES notation. Like-named read-outs stand apart in the source and are kept apart here.

For test [1], the target named is T1, HCV NS5B RdRp genotype 1b (Hepatitis C virus genotype 1b, UniProt Q9WMX2).
T1 construct: The protein was expressed with an 18 amino acid C-terminal truncation to enhance the solubility; made in house; host or cells: E. coli BL21(DE3), pET21a
As to the kind of experiment: Modified HCV NS5B RdRp enzyme assay (preincubation protocol). It is filed as biochemical. The method, then:
HCV NS5B RdRp cloning, expression, and purification. The cDNA encoding the NS5B protein of HCV, genotype 1b, was cloned into the pET21a expression vector. The protein was expressed with an 18 amino acid C-terminal truncation to enhance the solubility. The E. coli competent cell line BL21(DE3) was used for expression of the protein. Cultures were grown at 37° C. for ˜4 hours until the cultures reached an optical density of 2.0 at 600 nm. The cultures were cooled to 20° C. and induced with 1 mM IPTG. Fresh ampicillin was added to a final concentration of 50 μg/ml and the cells were grown overnight at 20° C.
Cell pellets (3 L) were lysed for purification to yield 15-24 mgs of purified NS5B. The lysis buffer consisted of 20 mM Tris-HCl, pH 7.4, 500 mM NaCl, 0.5% triton X-100, 1 mM DTT, 1 mM EDTA, 20% glycerol, 0.5 mg/ml lysozyme, 10 mM MgCl2, 15 μg/ml deoxyribonuclease I, and Complete TM protease inhibitor tablets (Roche). After addition of the lysis buffer, frozen cell pellets were resuspended using a tissue homogenizer. To reduce the viscosity of the sample, aliquots of the lysate were sonicated on ice using a microtip attached to a Branson sonicator. The sonicated lysate was centrifuged at 100,000×g for 1 hr at 4° C. and filtered through a 0.2 μm filter unit (Corning).
The protein was purified using three sequential chromatography steps: Heparin sepharose CL-6B, polyU sepharose 4B, and Hitrap SP sepharose (Pharmacia). The chromatography buffers were identical to the lysis buffer but contained no lysozyme, deoxyribonuclease I, MgCl2 or protease inhibitor and the NaCl concentration of the buffer was adjusted according to the requirements for charging the protein onto the column. Each column was eluted with a NaCl gradient which varied in length from 5-50 column volumes depending on the column type. After the final chromatography step, the resulting purity of the enzyme is >90% based on SDS-PAGE analysis. The enzyme was aliquoted and stored at −80° C.
Standard HCV NS5B RdRp enzyme assay. HCV RdRp genotype 1b assays were run in a final volume of 60 μl in 96 well plates (Costar 3912). The assay buffer is composed of 20 mM Hepes, pH 7.5, 2.5 mM KCl, 2.5 mM MgCl2, 1 mM DTT, 1.6 U RNAse inhibitor (Promega N2515), 0.1 mg/ml BSA (Promega R3961), and 2% glycerol. All compounds were serially diluted (3-fold) in DMSO and diluted further in water such that the final concentration of DMSO in the assay was 2%. HCV RdRp genotype 1b enzyme was used at a final concentration of 28 nM. A polyA template was used at 6 nM, and a biotinylated oligo-dT12 primer was used at 180 nM final concentration. Template was obtained commercially (Amersham 27-4110). Biotinylated primer was prepared by Sigma Genosys. 3H-UTP was used at 0.6 μCi (0.29 μM total UTP). Reactions were initiated by the addition of enzyme, incubated at 30° C. for 60 min, and stopped by adding 25 μl of 50 mM EDTA containing SPA beads (4 μg/μl, Amersham RPNQ 0007). Plates were read on a Packard Top Count NXT after >1 hr incubation at room temperature.
Modified HCV NS5B RdRp enzyme assay. A modified enzyme assay was performed essentially as described for the standard enzyme assay except for the following: The biotinylated oligo dT12 primer was precaptured on streptavidin-coated SPA beads by mixing primer and beads in assay buffer and incubating at room temperature for one hour. Unbound primer was removed after centrifugation. The primer-bound beads were resuspended in 20 mM Hepes buffer, pH 7.5 and used in the assay at final concentrations of 20 nM primer and 0.67 μg/μl beads. Order of addition in the assay: enzyme (14 nM) was added to diluted compound followed by the addition of a mixture of template (0.2 nM), 3H-UTP (0.6 μCi, 0.29 μM), and primer-bound beads, to initiate the reaction; concentrations given are final. Reactions were allowed to proceed for 4 hours at 30° C.
IC50 values for compounds were determined using seven different [I]. […]

For a further test, the system named is HCV replicon cells. Put plainly: HCV replicon FRET assay. Format: cell-based. The source says: FRET Assay Preparation. To perform the HCV FRET screening assay, 96-well cell culture plates were used. The FRET peptide (Anaspec, Inc.) (Taliani et al., Anal. Biochem. 1996, 240, 60-67) contains a fluorescence donor, EDANS, near one end of the peptide and an acceptor, DABCYL, near the other end. The fluorescence of the peptide is quenched by […] resonance energy transfer (RET) between the donor and the acceptor, but as the NS3 protease cleaves the peptide the products are released from RET quenching and the fluorescence of the donor becomes apparent. The assay reagent was made as follows: 5× cell Luciferase cell culture lysis reagent from Promega (#E153A) diluted to 1× with dH2O, NaCl added to 150 mM final, the FRET peptide diluted to 20 uM final from a 2 mM stock.
To prepare plates, HCV replicon cells, with or without a Renilla luciferase reporter gene, were trypsinized and placed into each well of a 96-well plate with titrated test compounds added in columns 3 through 12; columns 1 and 2 contained a control compound (HCV protease inhibitor), and the bottom row contained cells without compound. The plates were then placed in a CO2 incubator at 37° C.
Assays. Subsequent to addition of the test compounds described above (FRET Assay Preparation), at various times the plate was removed and Alamar blue solution (Trek Diagnostics, #00-100) was added per well as a measure of cellular toxicity. After reading in a Cytoflour 4000 instrument (PE Biosystems), plates were rinsed with PBS and then used for FRET assay by the addition of 30 ul of the FRET peptide assay reagent described above (FRET Assay Preparation) per well. The plate was then placed into the Cytoflour 4000 instrument which had been set to 340 excite/490 emission, automatic mode for 20 cycles and the plate read in a kinetic mode. Typically, the signal to noise using an endpoint analysis after the reads was at least three-fold. Alternatively, after Alamar blue reading, plates were rinsed with PBS, 50 ul of DMEM (high glucose) without phenol red was added and plates were then used for luciferase assay using the Promega Dual-Glo Luciferase Assay System.
Compound analysis was determined by quantification of the relative HCV replicon inhibition and the relative cytotoxicity values. To calculate cytoxicity values, the average Alamar Blue fluorescence signals from the control wells were set as 100% non-toxic. The individual signals in each of the compound test wells were then divided by the average control signal and multiplied by 100% to determine […]. To calculate the HCV replicon inhibition values, an average background value was obtained from the two wells containing the highest amount of HCV protease inhibitor at the end of the assay period. These numbers were similar to those obtained from naive Huh-7 cells.
The background numbers were then subtracted from the average signal obtained from the control wells and this number was used as 100% activity. The individual signals in each of the compound test wells were then divided by the averaged control values after background subtraction and multiplied by 100% to determine percent activity. EC50 values for a protease inhibitor titration were calculated as the concentration which caused a 50% reduction in FRET or luciferase activity. The two numbers generated for the compound plate, percent cytoxicity and percent activity were used to determine compounds of interest for further analysis.
A general note: In antiviral work, replicon cells carry a viral genome segment that copies itself.

T1 sequence (Q9WMX2 2420-2992): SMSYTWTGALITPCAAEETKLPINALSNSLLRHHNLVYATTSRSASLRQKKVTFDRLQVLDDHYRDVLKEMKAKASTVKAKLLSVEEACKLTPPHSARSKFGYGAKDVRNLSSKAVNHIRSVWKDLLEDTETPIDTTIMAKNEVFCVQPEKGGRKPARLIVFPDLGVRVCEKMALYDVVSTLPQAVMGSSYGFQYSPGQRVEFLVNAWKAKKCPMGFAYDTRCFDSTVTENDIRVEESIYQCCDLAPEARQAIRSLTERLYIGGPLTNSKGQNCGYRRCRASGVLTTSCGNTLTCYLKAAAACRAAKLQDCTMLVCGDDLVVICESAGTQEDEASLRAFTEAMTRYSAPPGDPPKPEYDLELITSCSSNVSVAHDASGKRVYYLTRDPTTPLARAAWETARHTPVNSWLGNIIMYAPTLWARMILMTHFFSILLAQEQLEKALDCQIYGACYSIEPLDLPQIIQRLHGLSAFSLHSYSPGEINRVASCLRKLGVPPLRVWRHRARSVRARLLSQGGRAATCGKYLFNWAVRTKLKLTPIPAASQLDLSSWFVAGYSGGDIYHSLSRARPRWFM

For the compound `COc1ccc2c(c1)C1CC1(C(=O)N1CC(C)(O)C1)Cn1c-2c(C2CCCCC2)c2ccc(C(=O)NS(=O)(=O)N(C)C)cc21` (stereo not shown), the concentration for half-maximal inhibition (IC50) in test [1] is less than 20 nM. In the test with HCV replicon cells (Hepatitis C virus), this compound registered a concentration giving a half-maximal response (EC50) of 1 to 500 nM.
With `COc1ccc2c(c1)C1CC1(C(=O)N1CC(O)(c3ccccc3)C1)Cn1c-2c(C2CCCCC2)c2ccc(C(=O)NS(=O)(=O)N(C)C)cc21` (stereo not shown), the IC50 in test [1] lay within 1 to 500 nM. The compound further registered a half-maximal effective concentration (EC50) with HCV replicon cells (Hepatitis C virus) of 1 to 500 nM.
For the compound `COc1ccc2c(c1)C1CC1(C(=O)N1CC(O)(c3ccc(F)cc3)C1)Cn1c-2c(C2CCCCC2)c2ccc(C(=O)NS(=O)(=O)N(C)C)cc21` (stereo not shown), the IC50 in test [1] lay within 1 to 500 nM. In the test with HCV replicon cells (Hepatitis C virus), this compound returned an EC50 of 1 to 500 nM.
On to `COc1ccc2c(c1)C1CC1(C(=O)N1CC(O)(C(C)C)C1)Cn1c-2c(C2CCCCC2)c2ccc(C(=O)NS(=O)(=O)N(C)C)cc21` (stereo not shown), for which the half-maximal inhibitory concentration (IC50) in test [1] is 1 to 500 nM. The same compound gave a half-maximal effective concentration (EC50) in the test with HCV replicon cells (Hepatitis C virus) of 1 to 500 nM.
For `COc1ccc2c(c1)C1CC1(C(=O)N1CC(O)C1)Cn1c-2c(C2CCCCC2)c2ccc(C(=O)NS(=O)(=O)C3CC3)cc21` (stereo not shown) [drawing 16], the IC50 in test [1] lay in the range of 1 to 500 nM. The EC50 in the test on HCV replicon cells (Hepatitis C virus, FRET assay, read-out: EC50) lay within 1 to 500 nM.
As to `COc1ccc2c(c1)C1CC1(C(=O)N1CC(O)C1)Cn1c-2c(C2CCCCC2)c2ccc(C(=O)NS(=O)(=O)N(C)C)cc21` (stereo not shown) [drawing 17], the IC50 in test [1] lay in the range of 1 to 500 nM. The concentration for a half-maximal effect (EC50) in the test with HCV replicon cells (Hepatitis C virus) lay within 1 to 500 nM.
Turning to `COc1ccc2c(c1)C1CC1(C(=O)N1CC(O)(C3CC3)C1)Cn1c-2c(C2CCCCC2)c2ccc(C(=O)NS(=O)(=O)N(C)C)cc21` (stereo not shown) [drawing 21], the 50% inhibitory concentration (IC50) in test [1] is 1 to 500 nM. This compound also yielded an EC50 with HCV replicon cells (Hepatitis C virus) of 1 to 500 nM.
`COc1ccc2c(c1)C1CC1(C(=O)N1CC(O)(C(F)(F)F)C1)Cn1c-2c(C2CCCCC2)c2ccc(C(=O)NS(=O)(=O)N(C)C)cc21` (stereo not shown) [drawing 23]: the half-inhibitory concentration (IC50) in test [1] lay in the range of 1 to 500 nM. The same compound returned an EC50 in the test with HCV replicon cells (Hepatitis C virus) of 1 to 500 nM.
In the case of `COc1ccc2c(c1)C1CC1(C(=O)N1CC(O)(C3CC3)C1)Cn1c-2c(C2CCCCC2)c2ccc(C(=O)NS(=O)(=O)N(C)C)cc21` (stereo not shown) [drawing 24], in test [1], the half-maximal inhibitory concentration (IC50) was in the range of 1 to 500 nM. Besides, in the test with HCV replicon cells (FRET assay), the concentration for a half-maximal effect (EC50) is 1 to 500 nM.
Take `COc1ccc2c(c1)C1CC1(C(=O)N1CC(O)(C(F)(F)F)C1)Cn1c-2c(C2CCCCC2)c2ccc(C(=O)NS(=O)(=O)N(C)C)cc21` (stereo not shown) [drawing 25]: the IC50 in test [1] is 1 to 500 nM. This compound returned an EC50 with HCV replicon cells (FRET assay) of 1 to 500 nM.
In turn, `COc1ccc2c(c1)C1CC1(C(=O)N1CC(O)C1)Cn1c-2c(C2CCCCC2)c2ccc(C(=O)NS(=O)(=O)C3CC3)cc21` (stereo not shown) [drawing 27] gave a half-maximal inhibitory concentration (IC50) in test [1] of 1 to 500 nM.
The compound `COc1ccc2c(c1)C1CC1(C(=O)N1CC(O)C1)Cn1c-2c(C2CCCCC2)c2ccc(C(=O)NS(=O)(=O)N(C)C)cc21` (stereo not shown) [drawing 28] returned a half-maximal inhibitory concentration (IC50) in test [1] of 1 to 500 nM.

As usually defined, the IC50 is the concentration that inhibits the measured activity by half. High values mean a need for much substance, low ones inhibition by little substance. A word on the EC50: it is the concentration that produces a half-maximal response.

For the origin of these results see US7521442B2, “Cyclopropyl fused indolobenzazepine HCV NS5B inhibitors” (Bristol-Myers Squibb Company, priority 2006, dated 2009).
